This is an account of results in US7879835B2 (Korea Research Institute of Chemical Technology, priority 2004, dated 2011).

The structures appear in SMILES notation. Read-outs that look alike come from different tables or passages of the source.

One series relates to osteoclasts. The series can be described thus: Inhibitory effect on resorption activity of osteoclast (resorption pit area on calcium phosphate-coated plate). Type of series: cell-based, mice. Particulars: compared to control. How it is done:
After finishing culture, the plate was washed with distilled water, and 50 μl/well of 5% sodium hypochlorite was added to the plate. The plate was let alone for 5 min, washed again with distilled water to remove the adherent cells, and dried at room temperature. Then, the area of formed resorption pits was calculated by means of Image Pro Plus software (Media Cybernetics Ver. 3.0).

Series [1] is described as follows: In vivo pharmacokinetics using female mice (serum concentration, HPLC). The settings on record: for Half-life: read-out: Half-life (converted); for clearance: read-out: CL (clearance) (converted); for Vd: read-out: Vd (volume of distribution). The procedure: Female mice each weighing […] were divided into groups of 5 mice each. The mice were anesthetized with ether, catheterized in their femoral artery and vein, respectively, and administered with 0.5 mg/kg body weight of compounds 234 and 274, and 5 mg/kg body weight of compounds 388, 404 and 415, respectively, via intravenous injection. Alternatively, 15 mg/kg body weight of compound 274 and 10 mg/kg body weight of compound 234 were orally administered to the mice.
At 0, 5, 10, 15 and 30 minutes and 1, 2, 4, 6, 9 and 12 hours after the intravenous injection, or at 0, 10, 20 and 40 minutes and 1, 2, 4, 6, 9 and 12 hours after the oral administration, 0.3 ml blood samples were taken from the mice through femoral artery. The blood samples were kept on an ice bath for 30 minutes and centrifuged at 3,000 rpm for 10 minutes to obtain a supernatant (serum). The supernatant samples were stored at −20° C.
Standard solution: Compounds 234, 274, 388, 404 and 415 were respectively dissolved in methanol to a concentration of 1 mg/ml to obtain stock solutions. The stock solutions were diluted with methanol to obtain standard solutions having concentrations of 40, 20, 10, 2, 1, 0.5, 0.2, 0.05 and 0.02 μg/ml, respectively.
Standard calibration curve: A stand calibration curve was prepared by employing calibration concentrations of 0.002, 0.005, 0.02, 0.05, 0.1, 0.2, 1, 2 and 4 μg/ml.
10 μl each of the standard solutions prepared above was added to 100 μl of normal serum sample and diluted 10 times. 250 μl of acetonitrile was added to the resulting dilution and the mixture was centrifuged for 10 minutes to obtain a supernatant. 300 μl of the supernatant was dried by evaporation under a nitrogen atmosphere and reconstituted by adding 50 μl of methanol. 20 μl of the resulting solution was analyzed by HPLC to prepare a standard calibration curve. HPLC was performed with Shimadzu ODS2 column (4.6×250 mm, 5 μm by employing a mixture of methanol/water (90/10 (v/v)) as the mobile phase at a flow rate of 1.2 ml/min, and measuring the absorbance at 240 nm.
Extraction: 100 μl of the serum sample obtained in (4-2-1) was put into a 1 ml microtube and 10 μl of methanol was added thereto. 250 μl of acetonitrile was added to the microtube and the mixture was centrifuged for 10 minutes to obtain a supernatant. 300 μl of the supernatant was dried by evaporation under a nitrogen atmosphere and reconstituted by adding 50 μl of methanol. 20 μl of the resulting solution was analyzed by the HPLC method as above.
Average concentrations of the compounds in the serum samples were plotted in a semi-log scale against the time lapsed after the administration, and the pharmacokinetic parameters were determined as a non-compartment open model by employing WinNonlin® program (Pharsight Corporation).

As for `CO/C=C(/C(=O)OC)c1ccc(Cl)cc1COc1ccc(OCCOC)cc1` [Compound No. 274, (E)-methyl-2-(2-((4-(2-methoxyethoxy)phenoxy)methyl)-4-chlorophenyl)-3-methoxyacrylate], the “Reduction (%) of the resorption pit area of osteoclasts” value (“Reduction (%)” below) with osteoclasts (0.3 uM) was determined as 100%. The “Reduction (%)” value with osteoclasts (1 uM) was determined as 100%. Besides, in the series on osteoclasts (3 uM), the “Reduction (%)” value was determined as 100%. Further, the “AUC (area under the curve of blood concentration versus time)” value in series [1] (I.V.) was determined as 47200 ± 25800 ng·h/mL. In series [1] (Oral), the “AUC (area under the curve of blood concentration versus time)” value amounted to 80600 ± 45400 ng·h/mL, the “CL (clearance)” value is 7.5 ± 3.4 mL/h and the “Vd (volume of distribution)” value turned out to be 0.0434 ± 0.0468 L/kg. Besides, the Half-life in series [1] (mouse, serum, 15 mg/kg, Oral) was 4.2 ± 3.7 h. Besides, the bioavailability in series [1] (mouse, serum, 15 mg/kg, oral versus I.V., read-out: Bioavailability) amounted to 8.5%. For the same compound, in series [1] (mouse, serum, iv, I.V.), the clearance was 0.238 mL/min, the Half-life was 3.5 ± 2.3 h and the Vd worked out at 0.0503 ± 0.0098 L/kg.

With `CO/C=C(/C(=O)OC)c1ccccc1COc1cccc(N2CCCCC2)c1` [Compound No. 388, (E)-methyl-2-[2-((3-(piperidin-1-yl)phenoxy)methyl)phenyl]-3-methoxyacrylate], the “AUC (area under the curve of blood concentration versus time)” value in series [1] (I.V.) was determined as 112600 ± 13000 ng·h/mL. Moreover, in series [1] (mouse, serum, iv, I.V.), the clearance was 0.0483 mL/min, the Half-life is 7.3 ± 1.2 h and the Vd was 0.0274 ± 0.002 L/kg.
